What was measured:
[1] = Inhibition of HIV1 reverse transcriptase K103N/Y181C double mutant infected in human MT2 cells assessed as protection against viral infection by MTT assay
[2] = Inhibition of HIV1 reverse transcriptase Y181C mutant infected in human MT2 cells assessed as protection against viral infection by MTT assay

SMILES	EC50 [1]	EC50 [2]
N#Cc1ccc2c(Cl)cc(Oc3ccc(F)cc3OCCn3ccc(=O)[nH]c3=O)cc2c1	4100 nM	1100 nM
N#Cc1ccc2ccc(Oc3ccc(F)cc3OCCn3ccc(=O)[nH]c3=O)cc2c1	9400 nM	1200 nM
N#Cc1cc2c(Oc3ccc(F)cc3OCCn3ccc(=O)[nH]c3=O)cc(F)cn2c1	10 nM	250 nM
Cc1cc(Oc2ccccc2OCCn2ccc(=O)[nH]c2=O)c(Cl)c2cc(C#N)ccc12	120 nM	42 nM
COCc1cc(Oc2ccccc2OCCn2ccc(=O)[nH]c2=O)c(C)c2cc(C#N)ccc12	790 nM	690 nM
Cc1cc2ccc(C#N)cc2c(C)c1Oc1ccccc1OCCn1ccc(=O)[nH]c1=O	1700 nM	> 100 nM
N#Cc1ccc2cc(Oc3ccccc3OCCn3ccc(=O)[nH]c3=O)ccc2c1	5600 nM	> 100 nM
N#Cc1ccc2c(Cl)cc(Oc3ccccc3OCCn3ccc(=O)[nH]c3=O)cc2c1	890 nM	890 nM
Cc1c(Oc2ccc(F)cc2OCCn2ccc(=O)[nH]c2=O)cc(Cl)c2ccc(C#N)cc12	500 nM	27 nM
CCCc1cc(Oc2ccccc2OCCn2ccc(=O)[nH]c2=O)c(C)c2cc(C#N)ccc12	990 nM	630 nM
Cc1c(Oc2ccccc2OCCn2ccc(=O)[nH]c2=O)cc(Cl)c2ccc(C#N)cc12		58 nM
Cc1c(Oc2ccccc2OCCn2ccc(=O)[nH]c2=O)c(C)c2cc(C#N)ccc2c1C	790 nM	
Cc1c(Oc2ccccc2OCCn2ccc(=O)[nH]c2=O)cc(CC2CC2)c2ccc(C#N)cc12	1200 nM	900 nM
COc1cc(Oc2ccccc2OCCn2ccc(=O)[nH]c2=O)c(C)c2cc(C#N)ccc12	1600 nM	670 nM
N#Cc1ccc2c(F)cc(Oc3ccccc3OCCn3ccc(=O)[nH]c3=O)c(Cl)c2c1	310 nM	90 nM
CCc1cc(Oc2ccccc2OCCn2ccc(=O)[nH]c2=O)c(C)c2cc(C#N)ccc12	300 nM	150 nM
Cc1c(Oc2ccccc2OCCn2ccc(=O)[nH]c2=O)cc(C(C)C)c2ccc(C#N)cc12	100 nM	400 nM
Cc1c(Oc2ccccc2OCCn2ccc(=O)[nH]c2=O)cc(F)c2ccc(C#N)cc12	890 nM	60 nM
Cc1c(Oc2ccc(Cl)cc2OCCn2ccc(=O)[nH]c2=O)cc(F)c2ccc(C#N)cc12	> 100 nM	330 nM
Cc1cc(Oc2ccccc2OCCn2ccc(=O)[nH]c2=O)c(C)c2cc(C#N)ccc12	150 nM	62 nM
N#Cc1ccc2ccc(Oc3ccccc3OCCn3ccc(=O)[nH]c3=O)cc2c1	4000 nM	2600 nM
Cc1cc(Oc2ccccc2OCCn2ccc(=O)[nH]c2=O)cc2cc(C#N)ccc12	2900 nM	800 nM
Cc1cc(Oc2ccc(F)cc2OCCn2ccc(=O)[nH]c2=O)c(F)c2cc(C#N)ccc12	3800 nM	1200 nM
Cc1cc(Oc2ccc(F)cc2OCCn2ccc(=O)[nH]c2=O)c(C)c2cc(C#N)ccc12	410 nM	28 nM
CCOc1cc(Oc2ccccc2OCCn2ccc(=O)[nH]c2=O)c(C)c2cc(C#N)ccc12	800 nM	200 nM
Cc1c(Oc2ccc(F)cc2OCCn2ccc(=O)[nH]c2=O)cc(F)c2ccc(C#N)cc12	980 nM	31 nM
N#Cc1ccc2c(F)cc(Oc3ccc(F)cc3OCCn3ccc(=O)[nH]c3=O)c(Cl)c2c1	1600 nM	72 nM

Source: BindingDB's records for doi:10.1021/acsmedchemlett.6b00390 (Yale University, 2016)
